Test results taken from ChEMBL document CHEMBL1139428, “Cocrystal structures of primed side-extending alpha-ketoamide inhibitors reveal novel calpain-inhibitor aromatic interactions” (J Med Chem, 2008).
Calls of active or inactive are those of the source. The calls are words filed in the database; no cut-off is given here.

Experiments:
[1] = target: T1, Calpain-2 catalytic subunit (Homo sapiens) (UniProt P17655); assay: Inhibition of m-calpain assessed as attenuation of substrate cleavage at 1 uM by FRET
T1 sequence (whole entry): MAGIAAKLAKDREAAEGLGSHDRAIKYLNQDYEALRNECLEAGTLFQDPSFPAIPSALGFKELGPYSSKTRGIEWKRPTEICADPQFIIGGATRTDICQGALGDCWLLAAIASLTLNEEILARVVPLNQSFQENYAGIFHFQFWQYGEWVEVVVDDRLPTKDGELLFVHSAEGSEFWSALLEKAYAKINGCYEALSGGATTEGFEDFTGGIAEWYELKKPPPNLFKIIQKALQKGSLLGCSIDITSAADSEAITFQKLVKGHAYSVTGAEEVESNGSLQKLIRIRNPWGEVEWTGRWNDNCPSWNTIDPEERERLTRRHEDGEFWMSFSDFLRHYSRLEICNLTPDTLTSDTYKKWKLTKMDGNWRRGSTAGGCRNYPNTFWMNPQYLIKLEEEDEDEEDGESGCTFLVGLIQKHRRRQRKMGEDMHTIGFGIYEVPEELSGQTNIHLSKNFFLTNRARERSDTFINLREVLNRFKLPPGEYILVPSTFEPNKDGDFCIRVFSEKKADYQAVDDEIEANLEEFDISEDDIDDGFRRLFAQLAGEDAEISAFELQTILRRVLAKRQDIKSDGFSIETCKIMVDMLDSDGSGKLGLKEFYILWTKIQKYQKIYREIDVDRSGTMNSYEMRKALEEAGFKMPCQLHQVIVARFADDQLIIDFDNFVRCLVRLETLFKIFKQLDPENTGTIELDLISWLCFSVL

[2] = target: T2, Calpain-1 catalytic subunit (Homo sapiens) (UniProt P07384); assay: Inhibition of calpain 1 protease core assessed as attenuation of substrate cleavage at 50 uM by FRET
T2 sequence (whole entry): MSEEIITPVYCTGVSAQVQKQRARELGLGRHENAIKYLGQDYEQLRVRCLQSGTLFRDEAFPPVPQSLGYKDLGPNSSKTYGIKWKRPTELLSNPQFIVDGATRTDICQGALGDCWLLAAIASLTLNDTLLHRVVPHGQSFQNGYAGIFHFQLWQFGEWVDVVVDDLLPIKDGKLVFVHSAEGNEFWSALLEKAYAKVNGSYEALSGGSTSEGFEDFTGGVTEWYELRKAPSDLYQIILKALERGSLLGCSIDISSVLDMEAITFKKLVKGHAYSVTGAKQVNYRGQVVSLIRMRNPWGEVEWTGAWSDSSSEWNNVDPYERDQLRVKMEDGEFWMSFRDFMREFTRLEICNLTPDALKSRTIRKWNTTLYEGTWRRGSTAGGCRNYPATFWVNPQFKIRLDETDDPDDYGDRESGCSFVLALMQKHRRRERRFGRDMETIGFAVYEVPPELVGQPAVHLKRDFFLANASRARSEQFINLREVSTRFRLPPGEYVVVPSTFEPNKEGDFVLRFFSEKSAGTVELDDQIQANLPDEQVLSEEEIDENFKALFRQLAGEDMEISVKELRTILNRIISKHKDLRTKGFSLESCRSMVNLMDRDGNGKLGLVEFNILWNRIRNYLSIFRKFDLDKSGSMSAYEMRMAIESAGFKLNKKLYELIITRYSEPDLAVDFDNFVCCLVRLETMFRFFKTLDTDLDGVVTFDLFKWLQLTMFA

SMILES	Activity [1]	Activity [2]
CC[C@H](NC(=O)[C@H](CC(C)C)NC(=O)OCc1ccccc1)C(=O)C(=O)NCCCN1CCN(C)CC1	Active	Active
CC[C@H](NC(=O)[C@H](CC(C)C)NC(=O)OCc1ccccc1)C(=O)C(=O)NCCCn1cnc2c(N)ncnc21	Active	Active
